# In patent US9695119B2, “Methionine analogs and methods of using same” (Bioxiness Pharmaceuticals, Inc., priority 2008, dated 2017):
# How the values were obtained:
# Type in all cases: cell-based
# [1] = tested on: E. coli (DH5-α); assay: Growth inhibition of E. coli by methionine analogs, 96-well plate, OD 550 nm over time; settings: for Absorbance: 12.5 mM, OD 550 nm
# From the text: Comparative Minimum Bactericidal Concentration (MBC) results provide estimates of the susceptibility of various test articles against test organisms. A modification of the […] (NCCL) Standardized Protocol “Methods for dilution antimicrobial susceptibility tests for bacteria that grow aerobically” was used in these studies. Sterile Phosphate Buffer Saline (PBS) at pH 7.0 (vehicle) was used as the diluent. Use of such diluent allows for the determination of the intrinsic activity of our test articles in the absence of any interfering molecules. Specifically, each test article was diluted using 2-fold serial dilution in 96-well plate to give a range of concentrations from approximately 50 mM to 0.05 mM in a final volume of 0.1 mL. Each dilution was inoculated with 5×10^5 CFU/mL test bacteria. The initial optical density as absorbance of each well was read at OD 550 nm using ThermoMax plate reader. […] At various time intervals post-treatment, OD reading at 550 nm was recorded at various time intervals. FIG. 1A and Table 1 show time dependent growth inhibition capability of analogs on E. coli at 12.5 mM. For FIGS. 1A and 1B, the 96-well plate format was used to culture E. coli (DH5-α) cells in M9 minimal media supplemented with glucose (M9) or same media supplemented with a range of concentrations of various analogs. Experiments were carried out in duplicate.
# [2] = tested on: S. aureus; assay: Broad spectrum bacterial growth inhibition, 96-well plate, M9 media
# Description: (§1) Table 2 and FIG. 2 summarizes a series of studies, which were performed to test eradication of bacterial growth using various species (representative strains of gram positive and gram negative microorganisms commonly associated with wound infection). A 96-well plate format was used to culture different bacteria in M9 minimal media supplemented with glucose (M9) or same media supplemented with a range of concentrations of various analogues (Methionine, I-AA and I-AB). Experiments were carried out in duplicate.
# [3] = tested on: S. epidermids; assay: as above
# Description: as §1
compound,measurement,setting,value
"CSCC[C@H](NC(=O)CN)C(=O)NO.Cl [I-AB, (S)-2-(2-aminoacetamido)-N-hydroxy-4-(methylthio)butanamide hydrochloride]",Absorbance,"[1]; E. coli, well 12, time 0 hrs",0.085
same,Absorbance,"[1]; E. coli, well 12, time 1 hrs",0.095
same,Absorbance,"[1]; E. coli, well 12, time 2 hrs",0.111
same,Absorbance,"[1]; E. coli, well 12, time 3 hrs",0.104
same,Absorbance,"[1]; E. coli, well 12, time 3.75 hrs",0.090
same,Absorbance,"[1]; E. coli, well 12, time 5 hrs",0.094
same,Absorbance,"[1]; E. coli, well 12, time 6.5 hrs",0.090
same,Absorbance,"[1]; E. coli, well 12, time 7.25 hrs",0.089
same,Absorbance,"[1]; E. coli, well 12, time 23 hrs",0.091
same,Concentration dependence of bacterial growth inhibition,"[1]; E. coli, spot inoculated agar plate (FIG. 1B)",concentration-dependent
same,E. coli growth inhibition,[1]; as compared to M9 and other analogs,significantly inhibited
same,"Broad Spectrum Bacterial Growth Inhibition Data, S. aureus","[2]; Conc. 0.0, well 4, M9 media",0.6
same,"Broad Spectrum Bacterial Growth Inhibition Data, S. aureus","[2]; Conc. 0.1, well 5, M9 media",0.6
same,"Broad Spectrum Bacterial Growth Inhibition Data, S. aureus","[2]; Conc. 0.2, well 6, M9 media",0.5
same,"Broad Spectrum Bacterial Growth Inhibition Data, S. aureus","[2]; Conc. 0.4, well 7, M9 media",0.5
same,"Broad Spectrum Bacterial Growth Inhibition Data, S. aureus","[2]; Conc. 0.8, well 8, M9 media",0.5
same,"Broad Spectrum Bacterial Growth Inhibition Data, S. aureus","[2]; Conc. 1.6, well 9, M9 media",0.4
same,"Broad Spectrum Bacterial Growth Inhibition Data, S. aureus","[2]; Conc. 3.1, well 10, M9 media",0.2
same,"Broad Spectrum Bacterial Growth Inhibition Data, S. aureus","[2]; Conc. 6.3, well 11, M9 media",0.1
same,"Broad Spectrum Bacterial Growth Inhibition Data, S. aureus","[2]; Conc. 12.5, well 12, M9 media",0.1
same,"Broad Spectrum Bacterial Growth Inhibition Data, S. epidermids","[3]; Conc. 0.0, well 4, M9 media",0.7
same,"Broad Spectrum Bacterial Growth Inhibition Data, S. epidermids","[3]; Conc. 0.1, well 5, M9 media",0.7
same,"Broad Spectrum Bacterial Growth Inhibition Data, S. epidermids","[3]; Conc. 0.2, well 6, M9 media",0.6
same,"Broad Spectrum Bacterial Growth Inhibition Data, S. epidermids","[3]; Conc. 0.4, well 7, M9 media",0.3
same,"Broad Spectrum Bacterial Growth Inhibition Data, S. epidermids","[3]; Conc. 0.8, well 8, M9 media",0.2
same,"Broad Spectrum Bacterial Growth Inhibition Data, S. epidermids","[3]; Conc. 1.6, well 9, M9 media",0.2
same,"Broad Spectrum Bacterial Growth Inhibition Data, S. epidermids","[3]; Conc. 3.1, well 10, M9 media",0.1
same,"Broad Spectrum Bacterial Growth Inhibition Data, S. epidermids","[3]; Conc. 6.3, well 11, M9 media",0.1
same,"Broad Spectrum Bacterial Growth Inhibition Data, S. epidermids","[3]; Conc. 12.5, well 12, M9 media",0.1
